Reference: BindingDB's records for doi:10.1016/s0960-894x(98)00417-x (Affymax Research Institute, 1999)

Key:
[1] = molecular target: Mannose-6-phosphate isomerase (Candida albicans) (UniProt P34948); assay: Compound was evaluated for the inhibition constant against phosphomannose isomerase enzyme of Candida albicans (CaPMI)
[2] = molecular target: Mannose-6-phosphate isomerase (Candida albicans) (UniProt P34948); assay: Compound was tested for percentage inhibition of phosphomannose isomerase enzyme of Candida albicans (CaPMI).

Mannose-6-phosphate isomerase (Candida albicans), sequence (P34948 whole entry, looked up): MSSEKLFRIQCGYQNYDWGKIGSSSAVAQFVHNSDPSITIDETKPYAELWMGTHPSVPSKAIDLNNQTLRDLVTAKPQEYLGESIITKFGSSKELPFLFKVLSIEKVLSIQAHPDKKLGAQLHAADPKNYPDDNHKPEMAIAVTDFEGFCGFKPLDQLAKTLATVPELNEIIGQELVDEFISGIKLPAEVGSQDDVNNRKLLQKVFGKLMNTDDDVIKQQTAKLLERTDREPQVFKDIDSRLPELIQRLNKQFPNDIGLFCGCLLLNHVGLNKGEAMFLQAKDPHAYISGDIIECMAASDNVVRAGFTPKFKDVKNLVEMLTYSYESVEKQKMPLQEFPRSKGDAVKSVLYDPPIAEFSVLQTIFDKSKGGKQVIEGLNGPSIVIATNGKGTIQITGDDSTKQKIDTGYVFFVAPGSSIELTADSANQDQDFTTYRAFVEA

Ki [1] [µM] | IC50 [2] [µM] | SMILES
4 | – | NC(=O)C1(NC(=O)CCCOc2ccc(Cl)cc2Cl)Cc2ccccc2C1 [2-[4-(2,4-Dichloro-phenoxy)-butyrylamino]-indan-2-carboxylic acid amide]
4 | 6 | O=C(CCCSc1ccc(Cl)c(Cl)c1)NC1(C(=O)NO)Cc2ccccc2C1 [2-[4-(3,4-Dichloro-phenylsulfanyl)-butyrylamino]-indan-2-carboxylic acid hydroxyamide]
